From patent US20110077294A1, “R-(-) / S-(+)-7-[3-N SUBSTITUTED AMINO-2 HYDROXYPROPOXY] FLAVONES” (priority 2006, published 2011)
Marks after values point to notes of the source that are not given here.

Columns and labels:
C57BL/KsBom-db/db mice [1] = experiment: Blood glucose profile of db/db mice during daily treatment (antihyperglycemic activity); type: in vivo; conditions: for Blood glucose % change compared to control, day 1: day 1, vs sham; for Blood glucose % change compared to control, day 2: day 2, vs sham; for Blood glucose % change compared to control, day 3: day 3, vs sham; for Blood glucose % change compared to control, day 4: day 4, vs sham; for Blood glucose % change compared to control, day 5: day 5, vs sham; for Blood glucose % change compared to control, day 6: day 6, vs sham; for Blood glucose % change compared to control, day 7: day 7, vs sham; for Blood glucose % change compared to control, day 8: day 8, vs sham; for Blood glucose % change compared to control, day 9: day 9, vs sham; for Comparative antihyperglycemic activity: Average Fall: day given in brackets, in %
Description: (§1) C57BL/KsBom-db/db mice (12-18 weeks old), weighing around 35+g bred in the animal house of CDRI, Lucknow, were used in the present experiments. The mice were housed in groups of 3 to 5 (same sex) in a room controlled for temperature (23±2.0 ° C.) and 12/12 hours light/dark cycle (lights on at 6.00 am). Body weight of each animal was measured daily from day 1 to day 10 of the experiment. All animals had free access to fresh water and normal pellet diet except on the day of the postprandial protocol (day 6) and during the overnight fast before the OGTT on day 10. The animals always had access to water during experimental periods. Blood glucose was checked every morning up till day 10. On day 10 an oral glucose tolerance test (OGTT) was performed after an overnight fasting. Blood glucose was measured at −30.0 min and test compounds were administered. The blood glucose was again measured at 0 min just post treatment and at this juncture glucose solution was given at a dose of 3 gm/kg to all the groups including the vehicle treated group. The blood glucose levels were checked at 30 min, 60 min, 90 min and 120 min post glucose administration. The data was analyzed for its significance on Prism software.

C57BL/KsBom-db/db mice [2] = experiment: Oral glucose tolerance test (OGTT) on day 10 in db/db mice; type: in vivo; conditions: 10 mg/kg
Description: as §1

CC(C)(C)NC[C@H](O)COc1ccc2c(=O)cc(-c3cc(OCc4ccccc4)cc(OCc4ccccc4)c3)oc2c1 [S-002-853 (S), (S)-(+)-7-(3-tert-Butylamino-2-hydroxypropoxy)-3′,5′-dibenzyloxyflavone]
fall in blood glucose profile (in words) (C57BL/KsBom-db/db mice [1]; 10 mg/kg): not statistically significant on any day post treatment | Blood glucose, day 1 post treatment (C57BL/KsBom-db/db mice [1]; 10 mg/kg): 19.8 ± 2.47 mM | Blood glucose % change compared to control, day 1 (C57BL/KsBom-db/db mice [1]; 10 mg/kg): −0.9% | Blood glucose, day 2 post treatment (C57BL/KsBom-db/db mice [1]; 10 mg/kg): 18.5 ± 2.34 mM | Blood glucose % change compared to control, day 2 (C57BL/KsBom-db/db mice [1]; 10 mg/kg): −9.60% | Blood glucose, day 3 post treatment (C57BL/KsBom-db/db mice [1]; 10 mg/kg): 17.9 ± 2.14 mM | Blood glucose % change compared to control, day 3 (C57BL/KsBom-db/db mice [1]; 10 mg/kg): −18.6% | Blood glucose, day 4 post treatment (C57BL/KsBom-db/db mice [1]; 10 mg/kg): 15.3 ± 2.96 mM | Blood glucose % change compared to control, day 4 (C57BL/KsBom-db/db mice [1]; 10 mg/kg): −26.8% | Blood glucose, day 5 post treatment (C57BL/KsBom-db/db mice [1]; 10 mg/kg): 13.8 ± 2.98 mM | Blood glucose % change compared to control, day 5 (C57BL/KsBom-db/db mice [1]; 10 mg/kg): −35.0% | Blood glucose, day 6 post treatment (C57BL/KsBom-db/db mice [1]; 10 mg/kg): 13.1 ± 3.41 mM | Blood glucose % change compared to control, day 6 (C57BL/KsBom-db/db mice [1]; 10 mg/kg): −40.7% | Blood glucose, day 7 post treatment (C57BL/KsBom-db/db mice [1]; 10 mg/kg): 11.8 ± 3.55 mM | Blood glucose % change compared to control, day 7 (C57BL/KsBom-db/db mice [1]; 10 mg/kg): −42.0% | Blood glucose, day 8 post treatment (C57BL/KsBom-db/db mice [1]; 10 mg/kg): 12.1 ± 3.39 mM | Blood glucose % change compared to control, day 8 (C57BL/KsBom-db/db mice [1]; 10 mg/kg): −42.2% | Blood glucose, day 9 post treatment (C57BL/KsBom-db/db mice [1]; 10 mg/kg): 14.2 ± 2.98 mM | Blood glucose % change compared to control, day 9 (C57BL/KsBom-db/db mice [1]; 10 mg/kg): −39.4% | antihyperglycemic and antidyslipidemic/antihyperlipidemic activity (in words) (C57BL/KsBom-db/db mice [1]; 25 mg/kg): significant antihyperglycemic and antidyslipidemic activity | Blood glucose, day 1 post treatment (C57BL/KsBom-db/db mice [1]; 25 mg/kg): 22.4 ± 1.24 mM | Blood glucose % change compared to control, day 1 (C57BL/KsBom-db/db mice [1]; 25 mg/kg): +0.20% | Blood glucose, day 2 post treatment (C57BL/KsBom-db/db mice [1]; 25 mg/kg): 16.6 ± 3.85 mM | Blood glucose % change compared to control, day 2 (C57BL/KsBom-db/db mice [1]; 25 mg/kg): −33.6% | Blood glucose, day 3 post treatment (C57BL/KsBom-db/db mice [1]; 25 mg/kg): 12.9 ± 3.00 mM | Blood glucose % change compared to control, day 3 (C57BL/KsBom-db/db mice [1]; 25 mg/kg): −39.5% | Blood glucose, day 4 post treatment (C57BL/KsBom-db/db mice [1]; 25 mg/kg): 10.6 ± 2.89 mM | Blood glucose % change compared to control, day 4 (C57BL/KsBom-db/db mice [1]; 25 mg/kg): −54.9% | Blood glucose, day 5 post treatment (C57BL/KsBom-db/db mice [1]; 25 mg/kg): 8.80 ± 3.84 mM | Blood glucose % change compared to control, day 5 (C57BL/KsBom-db/db mice [1]; 25 mg/kg): −55.6% | Blood glucose, day 6 post treatment (C57BL/KsBom-db/db mice [1]; 25 mg/kg): 7.60 ± 3.46 mM | Blood glucose % change compared to control, day 6 (C57BL/KsBom-db/db mice [1]; 25 mg/kg): −61.1% | maximum percentage fall in blood glucose (C57BL/KsBom-db/db mice [1]; 25 mg/kg, day 6 of treatment): around 61.1% | Blood glucose, day 7 post treatment (C57BL/KsBom-db/db mice [1]; 25 mg/kg): 10.6 ± 2.20 mM | Blood glucose % change compared to control, day 7 (C57BL/KsBom-db/db mice [1]; 25 mg/kg): −52.2% | Blood glucose, day 8 post treatment (C57BL/KsBom-db/db mice [1]; 25 mg/kg): 8.30 ± 1.13 mM | Blood glucose % change compared to control, day 8 (C57BL/KsBom-db/db mice [1]; 25 mg/kg): −60.0% | Blood glucose, day 9 post treatment (C57BL/KsBom-db/db mice [1]; 25 mg/kg): 7.90 ± 1.30 mM | Blood glucose % change compared to control, day 9 (C57BL/KsBom-db/db mice [1]; 25 mg/kg): −58.5% | antihyperglycemic and antidyslipidemic/antihyperlipidemic activity (in words) (C57BL/KsBom-db/db mice [1]; 25 mg/kg, listed as S-isomer): marked antihyperglycemic and antihyperlipidemic effect compared to racemic mixture | Comparative antihyperglycemic activity: Average Fall (C57BL/KsBom-db/db mice [1]; test dose 10 mg/kg): 42.2* | Comparative antihyperglycemic activity: Average Fall (C57BL/KsBom-db/db mice [1]; test dose 25 mg/kg): 61.1** | Blood glucose profile, 0 min post glucose load (C57BL/KsBom-db/db mice [2]; OGTT day 10, 0 min): 9.23 ± 3.10 mM | Blood glucose % change compared to control, 0 min post glucose load (C57BL/KsBom-db/db mice [2]; OGTT day 10, 0 min, vs sham): −25.7% | Blood glucose profile, 30 min post glucose load (C57BL/KsBom-db/db mice [2]; OGTT day 10, 30 min): 19.3 ± 5.52 mM | Blood glucose % change compared to control, 30 min post glucose load (C57BL/KsBom-db/db mice [2]; OGTT day 10, 30 min, vs sham): −32.8% | Blood glucose profile, 60 min post glucose load (C57BL/KsBom-db/db mice [2]; OGTT day 10, 60 min): 18.4 ± 5.39 mM | Blood glucose % change compared to control, 60 min post glucose load (C57BL/KsBom-db/db mice [2]; OGTT day 10, 60 min, vs sham): −27.2%
